{
  "source": "patent US20060014839A1",
  "about": "“Combination of angiotensin II receptor blocker and beta-blocker for secondary prevention of myocardial infarction” (priority 2002, published 2006)",
  "origin": "cited, not measured here",
  "tested_on": "elderly patients with heart failure",
  "details": "losartan versus captopril 50 mg t.i.d.",
  "data": [
    {"smiles": "CCCCc1nc(Cl)c(CO)n1Cc1ccc(-c2ccccc2-c2nn[nH]n2)cc1", "note": "[losartan]", "values": [
      {"measurement": "tolerability and increase in serum creatinine (primary objective)", "value": "no significant differences"},
      {"measurement": "all-cause mortality", "setting": "722 patients, 49 deaths, preliminary", "value": "statistically significant reduction"}
    ]}
  ]
}
